Where two headings read alike, the source gives them in different places.

The values that follow come from patent publication US20230081426A1, “COMPOUNDS AND METHODS FOR KRAS MODULATION AND INDICATIONS THEREFOR” (Plexxikon Inc., priority 2020, published 2023).

The assay deals with T1, G12D-mutant human KRAS (amino acid residues 1-188) (Homo sapiens, UniProt P01116, G12D).
T1 construct: G12D or G12C-mutant human KRAS (amino acid residues 1-188) with FLAG tag; made in house; host or cells: E. coli
T1 sequence (P01116 1-188 isoform P01116-2 G12D): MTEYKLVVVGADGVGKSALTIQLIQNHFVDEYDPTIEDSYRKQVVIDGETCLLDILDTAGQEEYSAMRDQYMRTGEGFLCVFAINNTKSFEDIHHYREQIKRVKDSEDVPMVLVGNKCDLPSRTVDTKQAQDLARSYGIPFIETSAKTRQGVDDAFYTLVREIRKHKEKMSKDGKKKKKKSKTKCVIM
Description: KRAS Binding Disruption Assay (AlphaScreen; biotinylated KRpep-2d analogue or RAF1-RBD), G12D. Particulars: geometric mean, read-out: KRAS GMean IC50 (uM) MUTATION: G12D. The protocol:
Compound binding disrupts the interaction of KRpep-2d or RAF1-RBD with KRAS, leading to a decrease in Alpha signal.
All assay components were prepared in 20 mM HEPES (pH 7.5), 100 mM NaCl, 5 mM MgCl2, 0.01% Tween-20, and 0.01% BSA. Biotinylated analogues of KRpep-2d were custom synthesized. The binding disruption assays were performed using 5-20 nM of mutant KRAS and 5-20 nM of either biotinylated KRpep-2d analogue or RAF1-RBD. 19 μL of KRAS protein and 4 μL of biotinylated KRpep-2d or RAF1-RBD were added to the wells of a 384-well plate containing 1 μL of various concentrations of test compound or DMSO vehicle. 16 wells containing KRAS, biotinylated KRpep-2d or RAF1-RBD, and 5% DMSO served as high controls. 16 wells containing KRAS only and 5% DMSO served as low controls. Binding reactions were incubated for 1 hour at 25° C., then Anti-Flag Acceptor and Streptavidin Donor Alpha beads were added at a final concentration of 10 μg/mL for an additional hour at room temperature. Alpha signal was read out on a Perkin Elmer Envision HTS instrument. The percentage inhibition at individual compound concentrations relative to high and low controls was calculated. The data were analyzed by using nonlinear regression to generate IC50 values.
On the technique in general: Alpha assays give light when donor and acceptor beads are brought close together.

Setting [1] is: Table 4, comparison with compounds of WO 2017/172979.

Take `CC1CN(c2nc(OCCCN3CCC(F)(F)C3)nc3c(F)c(-c4cc(O)cc5ccccc45)c(Cl)cc23)C(C)CN1` (centres unmarked) [Compound 36 in WO 2017/172979, reference compound]: under setting [1], the IC50 was determined as 3.06 µM. Consider `CN(C)CCCOc1nc(N2CCN(C)CC2)c2cc(Cl)c(-c3cc(O)cc4ccccc34)c(F)c2n1` [Compound 149 in WO 2017/172979, reference compound], for which, under setting [1], the IC50 worked out at 16.5 µM. Turning to `CN1CCC[C@H]1COc1nc(N2CCNCC2)c2cc(Cl)c(-c3cc(O)cc4ccccc34)c(F)c2n1` [Non-bridged version of P-0001, reference compound], under “Table 3, bridged vs non-bridged R1”, the IC50 came to 1.11 µM. For the compound `CN1CCC[C@H]1COc1nc(N2C[C@H]3CC[C@@H](C2)N3)c2cnc(-c3cc(O)cc4ccccc34)cc2n1` [P-0004, 4-(4-((1R,5S)-3,8-diazabicyclo[3.2.1]octan-3-yl)-2-(((S)-1-methylpyrrolidin-2-yl)methoxy)pyrido[4,3-d]pyrimidin-7-yl)naphthalen-2-ol], the IC50 (KRAS G12D) lay within 0.0001 to 10 µM. On the same count and under the same terms, for `CN1CCC[C@H]1COc1nc(N2C[C@@H]3CC[C@H]2CN3)c2ccc(-c3cc(O)cc4ccccc34)cc2n1` [P-0011, 4-(4-((1S,4S)-2,5-diazabicyclo[2.2.2]octan-2-yl)-2-(((S)-1-methylpyrrolidin-2-yl)methoxy)quinazolin-7-yl)naphthalen-2-ol] the value was 0.0001 to 10 µM; for `CN1CCC[C@H]1COc1nc(N2C[C@H]3CC[C@@H]2CN3)c2ccc(-c3cc(O)cc4ccccc34)cc2n1` [P-0012, 4-(4-((1R,4R)-2,5-diazabicyclo[2.2.2]octan-2-yl)-2-(((S)-1-methylpyrrolidin-2-yl)methoxy)quinazolin-7-yl)naphthalen-2-ol], 0.0001 to 10 µM.

Regarding `Cc1c(-c2cc(O)cc3ccccc23)ccc2c(N3C[C@H]4CC[C@@H](C3)N4)nc(OC[C@@H]3CCCN3C)nc12` [P-0014, 4-(4-((1R,5S)-3,8-diazabicyclo[3.2.1]octan-3-yl)-8-methyl-2-(((S)-1-methylpyrrolidin-2-yl)methoxy)quinazolin-7-yl)naphthalen-2-ol], where the note is “KRAS G12D”, the IC50 fell in the range of 0.0001 to 10 µM. Same read-out and setting: for `Oc1cc(-c2ccc3c(N4C[C@H]5CC[C@@H](C4)N5Cc4ccccc4)nc(OCC45CCCN4CCC5)nc3c2)c2ccccc2c1` [P-0018, 4-(4-((1R,5S)-8-benzyl-3,8-diazabicyclo[3.2.1]octan-3-yl)-2-((tetrahydro-1H-pyrrolizin-7a(5H)-yl)methoxy)quinazolin-7-yl)naphthalen-2-ol] the value was 0.0001 to 10 µM. As for `CN1CCC[C@H]1COc1nc(N2C[C@H]3CC[C@@H](C2)N3)c2cc(Cl)c(-c3cc(O)cc4ccccc34)c(OCC(F)(F)F)c2n1` [P-0033, 4-(4-((1R,5S)-3,8-diazabicyclo[3.2.1]octan-3-yl)-6-chloro-2-(((S)-1-methylpyrrolidin-2-yl)methoxy)-8-(2,2,2-trifluoroethoxy)quinazolin-7-yl)naphthalen-2-ol], for the setting “KRAS G12D”, the IC50 lay in the range of 0.0001 to 10 µM. `CO[C@@H]1CN(C)C[C@H]1Oc1nc(N2C[C@H]3CC[C@@H](C2)N3)c2cc(Cl)c(-c3cc(O)cc4ccccc34)c(F)c2n1` [P-0035, 4-(4-((1R,5S)-3,8-diazabicyclo[3.2.1]octan-3-yl)-6-chloro-8-fluoro-2-(((3R,4R)-4-methoxy-1-methylpyrrolidin-3-yl)oxy)quinazolin-7-yl)naphthalen-2-ol]: the IC50 (KRAS G12D) was 0.0001 to 10 µM. The same measure, in the same setting: for `CN1CCC[C@H]1COc1nc(N2CC3COCC(C2)N3)c2cc(Cl)c(-c3cc(O)cc4ccccc34)c(F)c2n1` [P-0040, 4-(4-(3-oxa-7,9-diazabicyclo[3.3.1]nonan-7-yl)-6-chloro-8-fluoro-2-(((S)-1-methylpyrrolidin-2-yl)methoxy)quinazolin-7-yl)naphthalen-2-ol] the value was 0.0001 to 10 µM; for `CN1CCC[C@H]1COc1nc(N2C[C@H]3C[C@@H]2CN3)c2cc(Cl)c(-c3cc(O)cc4ccccc34)c(F)c2n1` [P-0041, 4-(4-((1R,4R)-2,5-diazabicyclo[2.2.1]heptan-2-yl)-6-chloro-8-fluoro-2-(((S)-1-methylpyrrolidin-2-yl)methoxy)quinazolin-7-yl)naphthalen-2-ol], 0.0001 to 10 µM; for `CN1CCC[C@H]1COc1nc(N2C[C@H]3CC[C@@H](C2)N3)c2cc(Cl)c(-c3cc(O)cc4ccccc34)nc2n1` [P-0045, 4-(4-((1R,5S)-3,8-diazabicyclo[3.2.1]octan-3-yl)-6-chloro-2-(((S)-1-methylpyrrolidin-2-yl)methoxy)pyrido[2,3-d]pyrimidin-7-yl)naphthalen-2-ol], 0.0001 to 10 µM. The same measure, in the same setting: for `CN1CCC[C@H]1COc1nc(N2C[C@H]3C[C@@H]2CN3)c2ccc(-c3cc(O)cc4ccccc34)cc2n1` [P-0051, 4-(4-((1R,4R)-2,5-diazabicyclo[2.2.1]heptan-2-yl)-2-(((S)-1-methylpyrrolidin-2-yl)methoxy)quinazolin-7-yl)naphthalen-2-ol] the value was 0.0001 to 10 µM; for `CN1CCC[C@H]1COc1nc(N2C[C@@H]3C[C@H]2CN3)c2ccc(-c3cc(O)cc4ccccc34)cc2n1` [P-0052, 4-(4-((1S,4S)-2,5-diazabicyclo[2.2.1]heptan-2-yl)-2-(((S)-1-methylpyrrolidin-2-yl)methoxy)quinazolin-7-yl)naphthalen-2-ol], 0.0001 to 10 µM; for `CN(C)CCN(C)c1nc(N2C[C@H]3CC[C@@H](C2)N3)c2ccc(-c3cc(O)cc4ccccc34)cc2n1` [P-0057, 4-(4-((1R,5S)-3,8-diazabicyclo[3.2.1]octan-3-yl)-2-((2-(dimethylamino)ethyl)(methyl)amino)quinazolin-7-yl)naphthalen-2-ol], 10 to 100 µM. Consider `CN1CC[C@@H](COc2nc(N3C[C@H]4CC[C@@H](C3)N4)c3ccc(-c4cc(O)cc5ccccc45)cc3n2)C1` [P-0069, 4-(4-((1R,5S)-3,8-diazabicyclo[3.2.1]octan-3-yl)-2-(((R)-1-methylpyrrolidin-3-yl)methoxy)quinazolin-7-yl)naphthalen-2-ol], for which the IC50 (KRAS G12D) was in the range of 0.0001 to 10 µM. The same measure, in the same setting: as for `CN(C)C(=O)COc1nc(N2C[C@H]3CC[C@@H](C2)N3)c2ccc(-c3cc(O)cc4ccccc34)cc2n1` [P-0070, 2-((4-((1R,5S)-3,8-diazabicyclo[3.2.1]octan-3-yl)-7-(3-hydroxynaphthalen-1-yl)quinazolin-2-yl)oxy)-N,N-dimethylacetamide], the figure is 10 to 100 µM; as for `CN(C)C(=O)CCOc1nc(N2C[C@H]3CC[C@@H](C2)N3)c2ccc(-c3cc(O)cc4ccccc34)cc2n1` [P-0071, 3-((4-((1R,5S)-3,8-diazabicyclo[3.2.1]octan-3-yl)-7-(3-hydroxynaphthalen-1-yl)quinazolin-2-yl)oxy)-N,N-dimethylpropanamide], 0.0001 to 10 µM.

Take `CN(C)CC(CN)Oc1nc(N2C[C@H]3CC[C@@H](C2)N3)c2ccc(-c3cc(O)cc4ccccc34)cc2n1` (stereo partly drawn) [P-0074, 4-(2-((1-amino-3-(dimethylamino)propan-2-yl)oxy)-4-((1R,5S)-3,8-diazabicyclo[3.2.1]octan-3-yl)quinazolin-7-yl)naphthalen-2-ol]: the IC50 (KRAS G12D) was 0.0001 to 10 µM. Still for that read-out and setting: for `Oc1cc(-c2ccc3c(N4C[C@H]5CC[C@@H](C4)N5Cc4ccccn4)nc(OCC45CCCN4CCC5)nc3c2)c2ccccc2c1` [P-0076, 4-(4-((1R,5S)-8-(pyridin-2-ylmethyl)-3,8-diazabicyclo[3.2.1]octan-3-yl)-2-((tetrahydro-1H-pyrrolizin-7a(5H)-yl)methoxy)quinazolin-7-yl)naphthalen-2-ol] the value was 0.0001 to 10 µM.

Take `Oc1cc(-c2ccc3c(N4C[C@H]5CC[C@@H](C4)N5)nc(OCC4CCOC4)nc3c2)c2ccccc2c1` (stereo partly drawn) [P-0081, 4-(4-((1R,5S)-3,8-diazabicyclo[3.2.1]octan-3-yl)-2-((tetrahydrofuran-3-yl)methoxy)quinazolin-7-yl)naphthalen-2-ol]: for the setting “KRAS G12D”, the IC50 lay in the range of 0.0001 to 10 µM. In the case of `Oc1cc(-c2ccc3c(N4C[C@H]5CC[C@@H](C4)N5)nc(OCC4CCCO4)nc3c2)c2ccccc2c1` (stereo partly drawn) [P-0082, 4-(4-((1R,5S)-3,8-diazabicyclo[3.2.1]octan-3-yl)-2-((tetrahydrofuran-2-yl)methoxy)quinazolin-7-yl)naphthalen-2-ol], the half-inhibitory concentration (IC50) (KRAS G12D) fell in the range of 0.0001 to 10 µM. Turning to `CNCCOc1nc(N2C[C@H]3CC[C@@H](C2)N3)c2ccc(-c3cc(O)cc4ccccc34)cc2n1` [P-0083, 4-(4-((1R,5S)-3,8-diazabicyclo[3.2.1]octan-3-yl)-2-(2-(methylamino)ethoxy)quinazolin-7-yl)naphthalen-2-ol], the half-maximal inhibitory concentration (IC50) (KRAS G12D) fell in the range of 10 to 100 µM. As to `CN1CCOC[C@H]1COc1nc(N2C[C@H]3CC[C@@H](C2)N3)c2ccc(-c3cc(O)cc4ccccc34)cc2n1` [P-0084, 4-(4-((1R,5S)-3,8-diazabicyclo[3.2.1]octan-3-yl)-2-(((S)-4-methylmorpholin-3-yl)methoxy)quinazolin-7-yl)naphthalen-2-ol], the concentration for half-maximal inhibition (IC50) (KRAS G12D) fell in the range of 0.0001 to 10 µM. Still for that read-out and setting: for `CN1CCC1COc1nc(N2C[C@H]3CC[C@@H](C2)N3)c2ccc(-c3cc(O)cc4ccccc34)cc2n1` (stereo partly drawn) [P-0086, 4-(4-((1R,5S)-3,8-diazabicyclo[3.2.1]octan-3-yl)-2-((1-methylazetidin-2-yl)methoxy)quinazolin-7-yl)naphthalen-2-ol] the value was 0.0001 to 10 µM.

Broadly, the IC50 is the concentration at which inhibition is half-maximal.
